Columns and labels:
[1] = test system: control sera (pooled serum of ten healthy LUMC hospital workers; commercial negative donor pooled serum from the Dutch bloodbank); assay type: binding, human; set-up: Binding of Control serum LUMC to linear peptides / Binding of Control serum Blood-bank to linear peptides / Binding of Control serum LUMC to looped peptides / Binding of Control Serum Blood-Bank to Looped peptides / Binding of Control serum LUMC to linear peptides of the protein M of SARS-CoV Urbani / Binding of Control serum Blood-bank to linear peptides of the protein M of SARS-CoV Urbani / Binding of Control serum LUMC to looped peptides of the protein M of SARS-CoV Urbani / Binding of Control Serum Blood-Bank to Looped peptides of the protein M of SARS-CoV Urbani: unit not given here
[2] = test system: rabbit serum obtained by immunizing a rabbit with the SARS-CoV strain Frankfurt 1; assay type: binding; set-up: Binding of a rabbit serum to linear peptides / Binding of a rabbit serum to looped peptides / Rabbit serum linear peptides / Rabbit serum looped peptides / Binding of a rabbit serum to linear peptides of protein N of SARS-CoV Urbani (Rabbit serum linear peptides) / Binding of a rabbit serum to looped/cyclic peptides of protein N of SARS-CoV Urbani (Rabbit serum looped peptides): unit not given here
[3] = test system: antibodies in sera from SARS patients (sera 1a, 1b, 2, 6, 37, 62, London, SARS-yellow, SARS-green); assay type: binding, human; set-up: Binding of serum 6 to linear peptides of protein X1 of SARS-CoV Urbani / Binding of serum 37 to linear peptides of protein X1 of SARS-CoV Urbani / Binding of serum 6 to looped/cyclic peptide (PEPSCAN-ELISA) / Binding of serum 37 to looped/cyclic peptide (PEPSCAN-ELISA) / Binding of serum 37 to looped/cyclic peptides of protein X1 of SARS-CoV Urbani / Binding of serum 6 to linear peptides of protein X2 / Binding of serum 37 to linear peptides of protein X2 / Binding of serum 37 to looped/cyclic peptides of protein X2 of SARS-CoV Urbani / Binding of serum 6 to linear peptides of protein M of SARS-CoV Urbani / Binding of serum 37 to linear peptides of protein M of SARS-CoV Urbani / Binding of serum 6 to looped/cyclic peptides of protein M of SARS-CoV Urbani / Binding of serum 37 to looped/cyclic peptides of protein M of SARS-CoV Urbani / Binding of serum 6 to linear peptides of protein X3 of SARS-CoV Urbani / Binding of serum 37 to linear peptides of protein X3 of SARS-CoV Urbani / Binding of serum 37 to looped/cyclic peptides of protein X3 of SARS-CoV Urbani / Binding of serum 6 to linear peptides of protein X4 of SARS-CoV Urbani / Binding of serum 37 to linear peptides of protein X4 of SARS-CoV Urbani / Binding of serum 37 to looped/cyclic peptides of protein X4 of SARS-CoV Urbani / Binding of serum 6 to linear peptides of protein X5 of SARS-CoV Urbani / Binding of serum 37 to linear peptides of protein X5 of SARS-CoV Urbani / Binding of serum 37 to looped/cyclic peptides of protein X5 of SARS-CoV Urbani / Binding of serum 6 to linear peptides of protein N of SARS-CoV Urbani / Binding of serum 37 to linear peptides of protein N of SARS-CoV Urbani / Binding of serum 6 to linear peptide (PEPSCAN-ELISA) / Binding of serum 1a to looped/cyclic peptides of protein N of SARS-CoV Urbani / Binding of serum 1b to looped/cyclic peptides of protein N of SARS-CoV Urbani / Binding of serum 2 to looped/cyclic peptides of protein N of SARS-CoV Urbani / Binding of serum 6 to looped/cyclic peptides of protein N of SARS-CoV Urbani / Binding of serum 37 to looped/cyclic peptides of protein N of SARS-CoV Urbani / Binding of serum 62 to looped/cyclic peptides of protein N of SARS-CoV Urbani / Binding of serum London to looped/cyclic peptides of protein N of SARS-CoV Urbani / Binding of serum SARS-green to looped/cyclic peptides of protein N of SARS-CoV Urbani: unit not given here

LPFHRWHTMVQTCTP was tested, and the “Binding of Control Serum Blood-Bank to Looped peptides” value [1] was 0.5, the “Binding of Control serum Blood-bank to linear peptides” value [1] was 0.6 and the “Binding of Control serum LUMC to linear peptides” value [1] was 0.5. The “Binding of Control serum LUMC to looped peptides” value [1] was 0.4, the “Rabbit serum linear peptides” value [2] was 0.5 and the “Rabbit serum looped peptides” value [2] was 0.3. The “Binding of serum 1a to linear peptides of protein X5 of SARS-CoV Urbani” value [3] was 0.8, the “Binding of serum 1a to looped/cyclic peptides of protein X5 of SARS-CoV Urbani” value [3] was 0.5 and the “Binding of serum 1b to linear peptides of protein X5 of SARS-CoV Urbani” value [3] was 0.7. For the same sequence, the “Binding of serum 1b to looped/cyclic peptides of protein X5 of SARS-CoV Urbani” value [3] was 0.4, the “Binding of serum 2 to linear peptides of protein X5 of SARS-CoV Urbani” value [3] was 0.9 and the “Binding of serum 2 to looped/cyclic peptides of protein X5 of SARS-CoV Urbani” value [3] was 0.5. For the same sequence, the “Binding of serum 6 to linear peptides of protein X5 of SARS-CoV Urbani” value [3] was 0.6, the “Binding of serum 6 to looped/cyclic peptides of protein X5 of SARS-CoV Urbani” value [3] was 0.3 and the “Binding of serum 37 to linear peptides of protein X5 of SARS-CoV Urbani” value [3] was 0.8. The “Binding of serum 37 to looped/cyclic peptides of protein X5 of SARS-CoV Urbani” value [3] was 0.4, the “Binding of serum 62 to linear peptides of protein X5 of SARS-CoV Urbani” value [3] was 0.8 and the “Binding of serum 62 to looped/cyclic peptides of protein X5 of SARS-CoV Urbani” value [3] was 0.3. The “Binding of serum London to linear peptides of protein X5 of SARS-CoV Urbani” value [3] was 0.9, the “Binding of serum London to looped/cyclic peptides of protein X5 of SARS-CoV Urbani” value [3] was 0.2 and the “Binding of serum SARS-green to linear peptides of protein X5 of SARS-CoV Urbani” value [3] was 0.6. The “Binding of serum SARS-green to looped/cyclic peptides of protein X5 of SARS-CoV Urbani” value [3] was 0.3, the “Binding of serum SARS-yellow to linear peptides of protein X5 of SARS-CoV Urbani” value [3] was 0.4 and the “Binding of serum SARS-yellow to looped/cyclic peptides of protein X5 of SARS-CoV Urbani” value [3] was 0.2.
In the case of LQELLIQQWIQFMMS, the “Binding of Control Serum Blood-Bank to Looped peptides” value [1] was 0.6, the “Binding of Control serum Blood-bank to linear peptides” value [1] was 0.5 and the “Binding of Control serum LUMC to linear peptides” value [1] was 0.3. The “Binding of Control serum LUMC to looped peptides” value [1] was 0.6, the “Binding of a rabbit serum to linear peptides” value [2] was 0.3 and the “Binding of a rabbit serum to looped peptides” value [2] was 0.3. For the same sequence, the “Binding of serum 1a to linear peptides of protein X2” value [3] was 0.7, the “Binding of serum 1a to looped/cyclic peptides of protein X2 of SARS-CoV Urbani” value [3] was 0.6 and the “Binding of serum 1b to linear peptides of protein X2” value [3] was 0.6. For the same sequence, the “Binding of serum 1b to looped/cyclic peptides of protein X2 of SARS-CoV Urbani” value [3] was 0.5, the “Binding of serum 2 to linear peptides of protein X2” value [3] was 0.3 and the “Binding of serum 2 to looped/cyclic peptides of protein X2 of SARS-CoV Urbani” value [3] was 0.3. The “Binding of serum 6 to linear peptides of protein X2” value [3] was 0.3, the “Binding of serum 6 to looped/cyclic peptides of protein X2 of SARS-CoV Urbani” value [3] was 0.2 and the “Binding of serum 37 to linear peptides of protein X2” value [3] was 0.5. The “Binding of serum 37 to looped/cyclic peptides of protein X2 of SARS-CoV Urbani” value [3] was 0.4, the “Binding of serum 62 to linear peptides of protein X2” value [3] was 0.5 and the “Binding of serum 62 to looped/cyclic peptides of protein X2 of SARS-CoV Urbani” value [3] was 0.6. The “Binding of serum London to linear peptides of protein X2” value [3] was 0.4, the “Binding of serum London to looped/cyclic peptides of protein X2 of SARS-CoV Urbani” value [3] was 0.2 and the “Binding of serum SARS-green to linear peptides of protein X2” value [3] was 0.5. For the same sequence, the “Binding of serum SARS-green to looped/cyclic peptides of protein X2 of SARS-CoV Urbani” value [3] was 0.2, the “Binding of serum SARS-yellow to linear peptides of protein X2” value [3] was 0.6 and the “Binding of serum SARS-yellow to looped/cyclic peptides of protein X2 of SARS-CoV Urbani” value [3] was 0.3.
LRARSVSPKLFIRQE was tested, and the “Binding of Control Serum Blood-Bank to Looped peptides” value [1] was 0.6, the “Binding of Control serum Blood-bank to linear peptides” value [1] was 0.6 and the “Binding of Control serum LUMC to linear peptides” value [1] was 0.6. For the same sequence, the “Binding of Control serum LUMC to looped peptides” value [1] was 0.7, the “Recognition of the peptide by the rabbit serum” value [2] was “recognized” and the “Binding of serum 1a to linear peptides of protein X4 of SARS-CoV Urbani” value [3] was 0.7. For the same sequence, the “Binding of serum 1a to looped/cyclic peptides of protein X4 of SARS-CoV Urbani” value [3] was 0.8, the “Binding of serum 1b to linear peptides of protein X4 of SARS-CoV Urbani” value [3] was 0.6 and the “Binding of serum 1b to looped/cyclic peptides of protein X4 of SARS-CoV Urbani” value [3] was 0.6. The “Binding of serum 2 to linear peptides of protein X4 of SARS-CoV Urbani” value [3] was 0.5, the “Binding of serum 2 to looped/cyclic peptides of protein X4 of SARS-CoV Urbani” value [3] was 0.6 and the “Binding of serum 6 to linear peptides of protein X4 of SARS-CoV Urbani” value [3] was 0.8. For the same sequence, the “Binding of serum 6 to looped/cyclic peptides of protein X4 of SARS-CoV Urbani” value [3] was 0.8, the “Binding of serum 37 to linear peptides of protein X4 of SARS-CoV Urbani” value [3] was 0.7 and the “Binding of serum 37 to looped/cyclic peptides of protein X4 of SARS-CoV Urbani” value [3] was 0.7. For the same sequence, the “Binding of serum 62 to linear peptides of protein X4 of SARS-CoV Urbani” value [3] was 0.8, the “Binding of serum 62 to looped/cyclic peptides of protein X4 of SARS-CoV Urbani” value [3] was 0.7 and the “Binding of serum London to linear peptides of protein X4 of SARS-CoV Urbani” value [3] was 0.8. For the same sequence, the “Binding of serum London to looped/cyclic peptides of protein X4 of SARS-CoV Urbani” value [3] was 0.4, the “Binding of serum SARS-green to linear peptides of protein X4 of SARS-CoV Urbani” value [3] was 0.6 and the “Binding of serum SARS-green to looped/cyclic peptides of protein X4 of SARS-CoV Urbani” value [3] was 0.6. For the same sequence, the “Binding of serum SARS-yellow to linear peptides of protein X4 of SARS-CoV Urbani” value [3] was 0.3 and the “Binding of serum SARS-yellow to looped/cyclic peptides of protein X4 of SARS-CoV Urbani” value [3] was 0.7.
LRGTIVTRPLMESEL was tested, and the “Binding of Control Serum Blood-Bank to Looped peptides of the protein M of SARS-CoV Urbani” value [1] was 0.7, the “Binding of Control serum Blood-bank to linear peptides of the protein M of SARS-CoV Urbani” value [1] was 0.5 and the “Binding of Control serum LUMC to linear peptides of the protein M of SARS-CoV Urbani” value [1] was 0.5. For the same sequence, the “Binding of Control serum LUMC to looped peptides of the protein M of SARS-CoV Urbani” value [1] was 0.7, the “Rabbit serum linear peptides” value [2] was 0.0 and the “Rabbit serum looped peptides” value [2] was 0.5. The “Binding of serum 1a to linear peptides of protein M of SARS-CoV Urbani” value [3] was 0.7, the “Binding of serum 1b to linear peptides of protein M of SARS-CoV Urbani” value [3] was 0.5 and the “Binding of serum 2 to linear peptides of protein M of SARS-CoV Urbani” value [3] was 0.3. For the same sequence, the “Binding of serum 6 to linear peptides of protein M of SARS-CoV Urbani” value [3] was 0.3, the “Binding of serum 37 to linear peptides of protein M of SARS-CoV Urbani” value [3] was 0.5 and the “Binding of serum 62 to linear peptides of protein M of SARS-CoV Urbani” value [3] was 0.4. The “Binding of serum London to linear peptides of protein M of SARS-CoV Urbani” value [3] was 0.3, the “Binding of serum SARS-green to linear peptides of protein M of SARS-CoV Urbani” value [3] was 0.4 and the “Binding of serum SARS-yellow to linear peptides of protein M of SARS-CoV Urbani” value [3] was 1.0. The “Recognition of the peptide by sera of SARS-CoV infected individuals, and form (linear, looped/cyclic) in which it is recognized” value [3] was “recognized in looped/cyclic form”.

Source: patent US20070128217A1 (priority 2003, published 2007)
